Measured values taken from patent publication US8338465B2, “Cyclic carboxylic acid rhodanine derivatives for the treatment and prevention of tuberculosis” (priority 2006, dated 2012).
Like-named read-outs stand apart in the source and are kept apart here.

Target: T1, dihydrolipoamide acyltransferase (DlaT) (Mycobacterium tuberculosis, UniProt P9WIS7)
T1 sequence (P9WIS7 1-553): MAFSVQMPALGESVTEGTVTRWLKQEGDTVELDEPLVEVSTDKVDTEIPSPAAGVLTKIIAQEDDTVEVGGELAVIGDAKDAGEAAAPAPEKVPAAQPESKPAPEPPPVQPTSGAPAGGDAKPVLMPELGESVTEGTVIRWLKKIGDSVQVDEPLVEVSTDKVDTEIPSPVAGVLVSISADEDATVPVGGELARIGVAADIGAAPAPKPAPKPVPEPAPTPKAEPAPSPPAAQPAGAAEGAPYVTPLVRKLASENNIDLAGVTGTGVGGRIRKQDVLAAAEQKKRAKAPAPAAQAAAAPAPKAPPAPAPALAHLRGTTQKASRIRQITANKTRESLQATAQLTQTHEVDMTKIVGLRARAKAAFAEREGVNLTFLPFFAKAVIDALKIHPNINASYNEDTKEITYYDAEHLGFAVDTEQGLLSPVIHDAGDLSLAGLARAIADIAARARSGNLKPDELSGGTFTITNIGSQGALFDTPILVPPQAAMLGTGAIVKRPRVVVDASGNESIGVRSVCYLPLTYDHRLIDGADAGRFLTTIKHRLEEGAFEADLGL
Experiment: DlaT inhibition (Dlat IC50); DTNB peroxidase assay with Lpd, DlaT and AhpD
Format: biochemical

[1] = Table 1, Compounds A1 to A294, read-out: Dlat IC50 category

SMILES | IC50 (Dlat IC50 category) | IC50 [1] | also measured
CC(C)c1ccc(-c2ccc(C=C3SC(=S)N(C(Cc4ccccc4)C(=O)O)C3=O)o2)cc1 (centres unmarked) [Compound B67] | < 10 µM | – | –
CSc1ccc(-c2ccc(C=C3SC(=S)N(c4cc(C(=O)O)ccc4F)C3=O)o2)cc1 [Compound A239] | – | < 10 µM | –
CC(C)(C)c1ccc(-c2ccc(C=C3SC(=S)N(c4cncc(C(=O)O)c4)C3=O)o2)cc1 [Compound M3] | – | – | IC50 (Dlat IC50 category, Table 13, Compounds M1 to M4): < 10 µM
O=C(O)c1cccc(N2C(=O)C(=Cc3cc(-c4cccc(C(F)(F)F)c4)co3)SC2=S)c1 [Compound A28] | – | < 10 µM | –
O=C(O)c1ccc(Cl)c(N2C(=O)C(=Cc3ccc(-c4ccccc4Cl)o3)SC2=S)c1 [Compound A71] | – | < 10 µM | –
O=C(O)c1ccccc1NN1C(=O)C(=Cc2ccc(-c3ccccc3F)o2)SC1=S [Compound D43, 2-{5-[1-[5-(2-fluoro-phenyl)-furan-2-yl]-methylidene]-4-oxo-2-thioxo-thiazolidin-3-ylamino}-benzoic acid] | < 10 µM | – | –
Cc1cc(N(C)C)ccc1-c1ccc(C=C2SC(=S)N(C3CCCC(C(=O)O)C3)C2=O)o1 (centres unmarked) [Compound C29, 3-{5-[5-(4-Dimethylamino-2-methyl-phenyl)-furan-2-ylmethylene]-4-oxo-2-thioxo-thiazolidin-3-yl}-cyclohexanecarboxylic acid] | 11 to 40 µM | – | –
O=C(O)C(c1ccccc1)N1C(=O)C(=Cc2ccc(-c3cccc(Cl)c3)o2)SC1=S (centres unmarked) [Compound B2] | < 10 µM | – | –
O=C1C(=Cc2ccc(-c3ccccc3Cl)o2)SC(=S)N1c1ccc(O)cc1 [Compound A22] | – | < 10 µM | –
Cc1ccccc1-c1cccc(C=C2SC(=S)N(Nc3ccccc3C(=O)O)C2=O)n1 [Compound D15, 2-[4-Oxo-2-thioxo-5-(6-o-tolyl-pyridin-2-ylmethylene)-thiazolidin-3-ylamino]-benzoic acid] | 11 to 40 µM | – | –
CCCCOc1ccc(-c2ccc(C=C3SC(=S)N(Nc4ccccc4C(=O)O)C3=O)o2)cc1 [Compound D49, 2-{5-[1-[5-(4-butoxy-phenyl)-furan-2-yl]-methylidene]-4-oxo-2-thioxo-thiazolidin-3-ylamino}-benzoic acid] | < 10 µM | – | –
O=C1C(=Cc2ccc(-c3cccc(C(F)(F)F)c3)o2)SC(=S)N1c1ccc(O)cc1 [Compound A23] | – | < 10 µM | –
O=C(O)c1cccc(N2C(=O)C(=Cc3ccc(-c4ccc(Cl)cc4)o3)SC2=S)c1 [Compound A21] | – | < 10 µM | –
COc1ccc(-c2ccc(C=C3SC(=S)N(C4CCC(C(=O)O)CC4)C3=O)o2)cc1F (centres unmarked) [Compound C53, 4-{5-[1-[5-(3-fluoro-4-methoxy-phenyl)-furan-2-yl]-methylidene]-4-oxo-2-thioxo-thiazolidin-3-yl}-cyclohexanecarboxylic acid] | < 10 µM | – | –
CSc1cccc(-c2ccc(C=C3SC(=S)N(C4CCCC(C(=O)O)C4)C3=O)o2)c1 (centres unmarked) [Compound C62, 3-{5-[1-[5-(3-methylsulfanyl-phenyl)-furan-2-yl]-methylidene]-4-oxo-2-thioxo-thiazolidin-3-yl}-cyclohexanecarboxylic acid] | < 10 µM | – | –
Cc1c(C(=O)O)cccc1N1C(=O)C(=Cc2ccc(-c3ccccc3Cl)o2)SC1=S [Compound A79] | – | < 10 µM | –
O=C(O)C1CCCC(N2C(=O)C(=Cc3ccc(-c4ccccc4O)o3)SC2=S)C1 (centres unmarked) [Compound C13, 3-{5-[1-[5-(2-hydroxy-phenyl)-furan-2-yl]-methylidene]-4-oxo-2-thioxo-thiazolidin-3-yl}-cyclohexanecarboxylic acid] | < 10 µM | – | –
O=C(O)c1ccccc1NN1C(=O)C(=Cc2ccc(-c3ccccc3Cl)s2)SC1=S [Compound D35, 2-{4-oxo-2-thioxo-5-[1-(5-2-chloro-thiophen-2-yl)-methylidene]-thiazolidin-3-ylamino}-benzoic acid] | < 10 µM | – | –
O=C(O)c1cccc(NN2C(=O)C(=Cc3ccc(-c4cccc(C(F)(F)F)c4)o3)SC2=S)c1 [Compound D17, 3-{5-[1-[5-(3-trifluoromethyl-phenyl)-furan-2-yl]-methylidene]-4-oxo-2-thioxo-thiazolidin-3-ylamino}-benzoic acid] | < 10 µM | – | –
CC(C)c1cccc(-c2ccc(C=C3SC(=S)N(C(Cc4ccccc4)C(=O)O)C3=O)o2)c1 (centres unmarked) [Compound B75] | < 10 µM | – | –
Cc1ccc(-c2ccc(C=C3SC(=S)N(Nc4ccccc4C(=O)O)C3=O)o2)cc1 [Compound D13, 2-{4-oxo-2-thioxo-5-[1-(5-p-tolyl-furan-2-yl)-methylidene]-thiazolidin-3-ylamino}-benzoic acid] | < 10 µM | – | –
O=C(O)c1cccc(N2C(=O)C(=Cc3ccc(-c4ccccc4OCc4ccccc4)o3)SC2=S)c1 [Compound A179] | – | < 10 µM | –

SMILES | IC50 (Dlat IC50 category) | IC50 [1] | also measured
CC(=O)c1ccc(-c2ccc(C=C3SC(=S)N(c4cc(C(=O)O)ccc4F)C3=O)o2)cc1 [Compound A207] | – | < 10 µM | –
CC(C(=O)O)N1C(=O)C(=Cc2ccc(-c3ccc(Cl)cc3)o2)SC1=S (centres unmarked) [Compound B96] | < 10 µM | – | –
O=C(O)c1cccc(N2C(=O)C(=Cc3ccc(-c4ccc(C5CCCC5)cc4)o3)SC2=S)c1 [Compound A94] | – | < 10 µM | –
Cc1ccc(-c2cccc(C=C3SC(=S)N(c4cccc(C(=O)O)c4)C3=O)c2)cc1 [Compound A242] | – | 11 to 40 µM | –
COc1ccc(-c2ccc(C=C3SC(=S)N(Nc4ccccc4C(=O)O)C3=O)o2)c(C)c1 [Compound D9, 2-{5-[1-[5-(4-methoxy-2-methyl-phenyl)-furan-2-yl]-methylidene]-4-oxo-2-thioxo-thiazolidin-3-ylamino}-benzoic acid] | < 10 µM | – | –
O=C(O)CCCCCN1C(=O)C(=Cc2ccc(-c3ccccc3C(F)(F)F)o2)SC1=S [Compound B23] | 11 to 40 µM | – | –
CC(C)(C)c1ccc(O)c(-c2ccc(C=C3SC(=S)N(Nc4ccccc4C(=O)O)C3=O)o2)c1 [Compound D5, 2-{5-[1-[5-(5-tert-butyl-2-hydroxy-phenyl)-furan-2-yl]-methylidene]-4-oxo-2-thioxo-thiazolidin-3-ylamino}-benzoic acid] | < 10 µM | – | –
O=C(O)C1CCC(N2C(=O)C(=Cc3ccc(-c4ccccc4F)o3)SC2=S)CC1 (centres unmarked) [Compound C44, 4-{5-[1-[5-(2-fluoro-phenyl)-furan-2-yl]-methylidene]-4-oxo-2-thioxo-thiazolidin-3-yl}-cyclohexanecarboxylic acid] | < 10 µM | – | –
O=C(O)c1ccccc1NN1C(=O)C(=Cc2ccc(-c3cccc(-c4ccccc4)c3)o2)SC1=S [Compound D40, 2-{5-[1-(5-biphenyl-3-yl-furan-2-yl)-methylidene]-4-oxo-2-thioxo-thiazolidin-3-ylamino}-benzoic acid] | < 10 µM | – | –
COc1ccc(C)cc1-c1ccc(C=C2SC(=S)N(C3CCCC(C(=O)O)C3)C2=O)o1 (centres unmarked) [Compound C74, 3-{5-[5-(2-Methoxy-5-methyl-phenyl)-furan-2-ylmethylene]-4-oxo-2-thioxo-thiazolidin-3-yl}-cyclohexanecarboxylic acid] | 11 to 40 µM | – | –
O=C(O)C1CCCC(N2C(=O)C(=Cc3ccc(-c4cccc(CO)c4)o3)SC2=S)C1 (centres unmarked) [Compound C42, 3-{5-[1-[5-(3-hydroxymethyl-phenyl)-furan-2-yl]-methylidene]-4-oxo-2-thioxo-thiazolidin-3-yl}-cyclohexanecarboxylic acid] | < 10 µM | – | –
NC(=O)c1cccc(N2C(=O)C(=Cc3ccc(-c4cccc(C(F)(F)F)c4)o3)SC2=S)c1 [Compound A76] | – | 11 to 40 µM | –
CC(C)(C)c1ccc(-c2ccc(C=C3SC(=S)N(CC(=O)O)C3=O)o2)cc1 [Compound B74] | < 10 µM | – | –
CN(C)c1ccc(N2C(=O)C(=Cc3ccc(-c4cccc(Cl)c4)o3)SC2=S)cc1C(=O)O [Compound A275] | – | 11 to 40 µM | –
O=C(O)c1cccc(N2C(=O)C(=Cc3ccc(-c4ccc5nonc5c4)o3)SC2=S)c1 [Compound Q9] | – | – | IC50 (Dlat IC50 category, Table 17, Compounds Q1 to Q9): 11 to 40 µM
O=C(O)c1cc(N2C(=O)C(=Cc3ccc(-c4ccc(Cl)cc4Cl)o3)SC2=S)ccc1O [Compound A40] | – | 11 to 40 µM | –
O=C(O)C1CCCC(N2C(=O)C(=Cc3ccc(-c4ccccc4Cl)o3)SC2=S)C1 (centres unmarked) [Compound C1, 3-{5-[1-[5-(2-chloro-phenyl)-furan-2-yl]-methylidene]-4-oxo-2-thioxo-thiazolidin-3-yl}-cyclohexanecarboxylic acid] | 11 to 40 µM | – | –
O=C(O)c1cc(N2C(=O)C(=Cc3ccc(-c4ccc(CSc5ccccc5)cc4)o3)SC2=S)ccc1O [Compound A62] | – | 11 to 40 µM | –
O=C(O)c1ccccc1NN1C(=O)C(=Cc2ccc(-c3ccccc3-c3ccccc3)o2)SC1=S [Compound D57, 2-{5-[1-(5-biphenyl-2-yl-furan-2-yl)-methylidene]-4-oxo-2-thioxo-thiazolidin-3-ylamino}-benzoic acid] | < 10 µM | – | –
O=C(O)c1ccccc1NN1C(=O)C(=Cc2ccc(-c3ccccc3Cl)o2)SC1=S [Compound D1, 2-{5-[1-[5-(2-chloro-phenyl)-furan-2-yl]-methylidene]-4-oxo-2-thioxo-thiazolidin-3-ylamino}-benzoic acid] | < 10 µM | – | –
CCOc1ccc(-c2ccc(C=C3SC(=S)N(C4CCC(C(=O)O)CC4)C3=O)o2)cc1 (centres unmarked) [Compound C52, 4-{5-[1-[5-(4-ethoxy-phenyl)-furan-2-yl]-methylidene]-4-oxo-2-thioxo-thiazolidin-3-yl}-cyclohexanecarboxylic acid] | < 10 µM | – | –
O=C(O)c1ccc(F)c(N2C(=O)C(=Cc3ccc(-c4ccc(C5CCCCC5)cc4)o3)SC2=S)c1 [Compound A101] | – | < 10 µM | –
